Test [1] concerns the target T1, human cannabis CB1 receptor (Homo sapiens, UniProt P21554).
T1 construct: expressed in transfected cells; host or cells: human embryonic kidney (HEK) cells, transient, Semliki Forest Virus system; membrane preparation
Nature of the test: Affinity for cannabinoid CB1 receptors, [3H]-CP-55,940 radioligand binding on HEK cell membranes. To be noted: affinity for the CB1 receptor. As to the method: The affinity of the compounds of the invention for cannabinoid CB1 receptors was determined using membrane preparations of human embryonic kidney (HEK) cells in which the human cannabis CB1 receptor is transiently transfected using the Semliki Forest Virus system in conjunction with [3H]-CP-55,940 as radioligand. After incubation of a freshly prepared cell membrane preparation with the [3H]-ligand, with or without addition of compounds of the invention, separation of bound and free ligand was performed by filtration over glassfiber filters. Radioactivity on the filter was measured by liquid scintillation counting. The affinity of the compounds of the invention for cannabinoid CB2 receptors was determined using membrane preparations of human embryonic kidney (HEK) cells in which the human cannabis CB2 receptor is transiently transfected using the Semliki Forest virus system in conjunction with [3H]-CP-55,940 as radioligand. After incubation of a freshly prepared cell membrane preparation with the [3H]-ligand, with or without addition of compounds of the invention, separation of bound of bound and free ligand was performed by filtration over glassfiber filters. Radioactivity on the filter was measured by liquid scintillation counting. The cannabinoid CB1 antagonistic activity of compounds of the invention was determined by functional studies using CHO cells in which human cannabinoid CB1 receptors are stably expressed (see M. Rinaldi-Carmona et. al., J. Pharmacol. Exp. Ther. 278 (1996) 871). The stable expression of the human cannabinoid receptor in cell systems was first described in Nature 1990, 346, 561-564 (CB1) and Nature 1993, 365, 61-65 (CB2) respectively. Adenylyl cyclase was stimulated using forskolin and measured by quantifying the amount of accumulated cyclic AMP. […]
The compounds of formula (I) show an excellent affinity for the CB1 receptor, determined with the experimental conditions described in Devane et. al. Mol. Pharmacol. 34 (1988) 605-613. […]

For test [2] the following is noted: wild-type versus CB1 receptor knockout mice; cited from earlier work.
For test [3] the following is noted: 10 and 20 mg daily, compared to placebo; cited from earlier work.

Here are results for four molecules from patent US7563910B2, “Heterocyclic cannabinoid receptor antagonists” (Hoffmann-La Roche Inc., priority 2004, dated 2009).

T1 sequence (P21554 whole entry): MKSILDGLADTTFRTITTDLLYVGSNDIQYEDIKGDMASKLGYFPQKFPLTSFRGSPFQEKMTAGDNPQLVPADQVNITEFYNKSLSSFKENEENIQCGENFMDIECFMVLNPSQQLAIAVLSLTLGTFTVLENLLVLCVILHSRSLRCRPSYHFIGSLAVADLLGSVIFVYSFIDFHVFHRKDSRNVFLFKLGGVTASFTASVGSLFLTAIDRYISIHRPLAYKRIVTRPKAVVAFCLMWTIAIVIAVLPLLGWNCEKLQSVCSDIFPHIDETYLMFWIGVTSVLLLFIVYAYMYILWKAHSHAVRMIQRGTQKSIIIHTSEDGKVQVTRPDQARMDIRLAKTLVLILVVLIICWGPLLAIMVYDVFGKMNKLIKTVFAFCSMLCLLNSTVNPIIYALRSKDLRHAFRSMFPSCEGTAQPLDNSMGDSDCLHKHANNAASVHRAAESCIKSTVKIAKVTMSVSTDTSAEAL

Molecule `Cc1c(C(=O)NC2CCCCC2)cc(-c2ccccc2OC(F)(F)F)n1CC1COCCO1` (racemic) [Example 10, (rac) 1-[1,4]Dioxan-2-ylmethyl-2-methyl-5-(2-trifluoromethoxy-phenyl)-1H-pyrrole-3-carboxylic acid cyclohexylamide] gave a half-inhibitory concentration (IC50) in test [1] of 76 nM. That is a double-digit nanomolar value.

Consider `Cc1c(C(=O)NN2CCCCC2)nc(-c2ccc(OC(F)(F)F)cc2)n1CC1CCCCO1` (centres unmarked) [Example 1, 5-Methyl-1-(tetrahydro-pyran-2-ylmethyl)-2-(4-trifluoromethoxy-phenyl)-1H-imidazole-4-carboxylic acid piperidin-1-ylamide], for which the IC50 in test [1] turned out to be 120 nM.

For `Cc1c(C(=O)NC2CCCCC2)cc(-c2cc(C(F)(F)F)ccc2C(F)(F)F)n1C[C@H]1CCCO1` [Example 23, 5-(2,5-Bis-trifluoromethyl-phenyl)-2-methyl-1-[(R)-1-(tetrahydro-furan-2-yl)methyl]-1H-pyrrole-3-carboxylic acid cyclohexylamide], the IC50 in test [1] came to 8 nM.

Consider `Cc1c(C(=O)NN2CCCCC2)nn(-c2ccc(Cl)cc2Cl)c1-c1ccc(Cl)cc1` [SR 141716], for which the food intake entry in test [2] is reported as “reduces food intake in wild-type but not knockout mice”. The body weight entry in test [3] is on record as “significantly reduced body weight”.

As usually defined, the IC50 is the concentration needed to halve the response being measured.
